EC50 and ee % data for five molecules are collected here from US12172959B2, “Mono- or di-substituted indole derivatives as dengue viral replication inhibitors” (priority 2015, dated 2024).

For one series, the system named is DENV-3 strain H87. Briefly: Tetravalent RT-qPCR assay Protocol B, serotype 3. The class given is cell-based. The settings on record: Dengue virus, DENV3, 168 h, RT-qPCR serotype 3 H87, 7 days. As for the experimental part: The antiviral activity of the compounds of the invention was tested against DENV-1 strain Djibouti strain (D1/H/IMTSSA/98/606; Table 6), DENV-2 strain NGC (Table 7), DENV-3 strain H87 (Table 8) and DENV-4 strain SG/06K2270DK1/2005 (Table 9B) in a RT-qPCR assay. Vero-B or Vero-M cells (5×10^4) were seeded in 96-well plates. One day later, culture medium was replaced with 100 μL assay medium containing a 2×, 3× or 5× serial dilution of the compound (concentration range: 50 μg/mL-0.00038 μg/mL, 50 μg/mL-0.0076 μg/mL, and 50 μg/mL-0.00013 μg/mL, respectively) and 100 μL of dengue virus inoculum (DENV). Following a 2 hour incubation period, the cell monolayer was washed 3 times with assay medium to remove residual, non-adsorbed virus and cultures were further incubated for either 4 days (DENV-2 NGC) or 7 days (DENV-1 Djibouti strain D1/H/IMTSSA/98/606, DENV-3 strain H87 prototype, DENV-4 strain H241, and DENV-4 strain EDEN) in the presence of the inhibitor. Supernatant was harvested and viral RNA load was determined by real-time quantitative RT-PCR. The 50% effective concentration (EC50), which is defined as the compound concentration that is required to inhibit viral RNA replication by 50%, was determined using logarithmic interpolation.
RNA was isolated from 100 μL (or in some circumstances 150 μL) supernatant with the NucleoSpin 96 Virus kit (Filter Service, Duren, Germany) as described by the manufacturer. The sequences of the TaqMan primers (DENV-For, DENV-Rev; Table 5) and TaqMan probes (DENV-Probe Table 5) were selected from non-structural gene 3 (NS3) or NS5, of the respective flaviviruses using Primer Express software (version 2.0; Applied Biosystems, Lennik, Belgium). The TaqMan probe was fluorescently labelled with 6-carboxyfluorescein (FAM) at the 5′ end as the reporter dye, and with minor groove binder (MGB) at the 3′ end as the quencher (Table 5). One-step, quantitative RT-PCR was performed in a total volume of 25 μL, containing 13.9375 μL H2O, 6.25 μL master mix (Eurogentec, Seraing, Belgium), 0.375 μL forward primer, 0.375 μL reverse primer, 1 μL probe, 0.0625 μL reverse transcriptase (Eurogentec) and 3 μL sample. RT-PCR was performed using the ABI 7500 Fast Real-Time PCR System (Applied Biosystems, Branchburg, New Jersey, USA) using the following conditions: 30 min at 48° C. and 10 min at 95° C., followed by 40 cycles of 15 s at 95° C. and 1 min at 60° C. The data was analyzed using the ABI PRISM 7500 SDS software (version 1.3.1; Applied Biosystems). For absolute quantification, standard curves were generated using 10-fold dilutions of template preparations of known concentrations.
A general note: Quantitative PCR measures a nucleic acid by following its amplification.

Series [1] in a line: Chiral stability at pH 7.4 (enantiomeric excess by Chiral SFC after incubation). The conditions noted are these: 5 μM. It counts as physicochemical. As to the method: The chiral stability of Enantiomer 1A (R=OMe) was evaluated by determination of the enantiomeric excess (ee %) after incubation for 24 h and 48 h in a buffered solution at pH 7.4 at 40° C. and 60° C. To assess the influence of the methoxy-substituent of Enantiomer 1A (R=OMe) on the stability against racemization, the chiral stability of Enantiomer 1′A (R=H) was tested under the same conditions. To this end, 5 μM buffered (pH=7.4) solutions of 1A and 1′A were prepared by mixing 25 μL of a 100 μM solution of 1A or 1′A in DMSO with 475 μL aqueous buffer pH 7.4. Samples were taken 24 h and 48 h after incubation at 40° C. and 60° C. The analytical samples were analyzed by Chiral SFC (MS detection) and the chiral purity was expressed as the enantiomeric excess (ee %=% enantiomer A−% enantiomer B).

For the molecule `COc1cc(NC(C(=O)c2c[nH]c3cc(F)ccc23)c2ccc(Cl)cc2OC)cc(S(C)(=O)=O)c1` (single isomer, unassigned) [Compound 1A, 2-(4-chloro-2-methoxyphenyl)-1-(6-fluoro-1H-indol-3-yl)-2-((3-methoxy-5-(methylsulfonyl)phenyl)amino)ethanone], in the series on DENV-3 strain H87, the half-maximal effective concentration (EC50) (as a rule, the midpoint of the concentration-response curve) was less than 15 nM. Moreover, the ee % is 100% in series [1] (buffered solution pH 7.4, 40° C., 24 h); 100% in series [1] (buffered solution pH 7.4, 40° C., 48 h); 95% in series [1] (buffered solution pH 7.4, 60° C., 24 h); 88% in series [1] (buffered solution pH 7.4, 60° C., 48 h).
As for `COc1cc(NC(C(=O)c2c[nH]c3c(C)c(F)ccc23)c2ccc(Cl)cc2OC)cc(S(C)(=O)=O)c1` (single isomer, unassigned) [Compound 2A, 2-(4-chloro-2-methoxyphenyl)-1-(6-fluoro-7-methyl-1H-indol-3-yl)-2-((3-methoxy-5-(methylsulfonyl)phenyl)amino)ethanone], the 50% effective concentration (EC50) with DENV-3 strain H87 was less than 14 nM.
The same measure, in the same setting: the figure for `COc1cc(NC(C(=O)c2c[nH]c3cc(OC)c(C)cc23)c2ccc(Cl)cc2OC)cc(S(C)(=O)=O)c1` (single isomer, unassigned) [Compound 4A, 2-(4-chloro-2-methoxyphenyl)-2-((3-methoxy-5-(methyl-sulfonyl)phenyl)amino)-1-(6-methoxy-5-methyl-1H-indol-3-yl)ethanone] is less than 14 nM; for `COc1cc(NC(C(=O)c2c[nH]c3cc(OC)c(F)cc23)c2ccc(Cl)cc2OC)cc(S(C)(=O)=O)c1` (single isomer, unassigned) [Compound 5A, 2-(4-chloro-2-methoxyphenyl)-1-(5-fluoro-6-methoxy-1H-indol-3-yl)-2-((3-methoxy-5-(methylsulfonyl)phenyl)amino)ethanone] it is 22 nM; for `COc1cc(NC(C(=O)c2c[nH]c3c(C)c(OC)ccc23)c2ccc(Cl)cc2OC)cc(S(C)(=O)=O)c1` (single isomer, unassigned) [Compound 6A, 2-(4-chloro-2-methoxyphenyl)-2-((3-methoxy-5-(methyl-sulfonyl)phenyl)amino)-1-(6-methoxy-7-methyl-1H-indol-3-yl)ethanone] it is less than 14 nM.
